This note sets out measurements from US20230102554A1 (GB002, INC., priority 2019, published 2023).

Test [1] addresses T1, Human PDGFRβ, cytoplasmic domain (GST-PDGFRβ) (Homo sapiens, UniProt P09619).
T1 construct: made in house
Put plainly: Human PDGFRβ biochemical inhibition assay (off-chip Mobility Shift Assay). The protocol:
Human PDGFRβ Biochemical Inhibition Assay
The compounds described herein were tested for the ability to inhibit activity of PDGFRβ which was achieved via use of an off-chip Mobility Shift Assay (MSA). Human PDGFRβ, cytoplasmic domain [557-1106 (end) amino acids of accession number NP_002600.1 (SEQ ID NO: 3)] was expressed as N-terminal GST-fusion protein (88 kDa) using baculovirus expression system (SEQ ID NO: 4). GST-PDGFRβ was purified by using glutathione sepharose chromatography. Test compounds were dissolved in and diluted with dimethylsulfoxide (DMSO) to achieve 1 mM concentration. Then the solution was further diluted 25-fold with assay buffer to make the final test compound solution. The reference compound, Staurosporine, used as the assay positive control was prepared similarly. The 4× compound solution/substrate (CSKtide, 1000 nM)/ATP (Km ATP)/Mg Metal (5 mM) was prepared with kit buffer (20 mM HEPES, 0.01% Triton X-100, 5 mM DTT, pH 7.5), and 2× kinase solution was prepared with assay buffer (20 mM HEPES, 0.01% Triton X-100, 1 mM DTT, pH 7.5). The 5 μL of 4× compound solution, […] of 4× Substrate/ATP/Metal solution, and […] of 2× kinase solution were mixed and incubated in a well of polypropylene 384 well microplate for 1 hour at room temperature. […] of Termination Buffer (QuickScout Screening Assist MSA; Carna Biosciences) was added to the well. The reaction mixture was applied to LabChip™ system (Perkin Elmer), and the product and substrate peptide peaks were separated and quantitated. The kinase reaction was evaluated by the product ratio calculated from peak heights of product(P) and substrate(S) peptides (P/(P+S)). The readout value of reaction control (complete reaction mixture) was set as a 0% inhibition, and the readout value of background (Enzyme(−)) was set as a 100% inhibition, then the percent inhibition of each test solution was calculated.
With respect to PDGFRβ activity: “+++” denotes an IC50 of less than 300 nM; “++” denotes an IC50 of from 300 nM to less than 1000 nM; and “+” denotes an IC50 of 1000 nM or more.

For test [2], the target named is T2, Human PDGFRα, cytoplasmic domain (GST-PDGFRα) (Homo sapiens, UniProt P16234).
T2 construct: made in house
The test is described as follows: Human PDGFRα biochemical inhibition assay (off-chip Mobility Shift Assay).

Each structure is given as a SMILES string.

T2 sequence (P16234 550-1089 T674I): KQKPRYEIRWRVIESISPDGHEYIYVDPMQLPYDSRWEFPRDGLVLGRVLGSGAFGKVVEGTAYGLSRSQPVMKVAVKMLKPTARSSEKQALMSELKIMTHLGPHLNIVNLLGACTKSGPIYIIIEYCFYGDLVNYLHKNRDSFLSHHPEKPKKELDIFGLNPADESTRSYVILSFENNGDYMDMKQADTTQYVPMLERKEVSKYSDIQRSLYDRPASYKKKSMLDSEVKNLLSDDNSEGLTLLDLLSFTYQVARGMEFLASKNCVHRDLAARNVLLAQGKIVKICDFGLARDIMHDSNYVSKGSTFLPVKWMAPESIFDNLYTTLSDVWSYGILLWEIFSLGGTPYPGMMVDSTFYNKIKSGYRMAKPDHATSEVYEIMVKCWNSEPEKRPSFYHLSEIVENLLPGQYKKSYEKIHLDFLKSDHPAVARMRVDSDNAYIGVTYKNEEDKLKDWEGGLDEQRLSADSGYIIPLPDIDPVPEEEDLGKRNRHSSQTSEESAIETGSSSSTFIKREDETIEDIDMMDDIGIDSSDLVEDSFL
T1 sequence (P09619 with tags, fused parts or gaps): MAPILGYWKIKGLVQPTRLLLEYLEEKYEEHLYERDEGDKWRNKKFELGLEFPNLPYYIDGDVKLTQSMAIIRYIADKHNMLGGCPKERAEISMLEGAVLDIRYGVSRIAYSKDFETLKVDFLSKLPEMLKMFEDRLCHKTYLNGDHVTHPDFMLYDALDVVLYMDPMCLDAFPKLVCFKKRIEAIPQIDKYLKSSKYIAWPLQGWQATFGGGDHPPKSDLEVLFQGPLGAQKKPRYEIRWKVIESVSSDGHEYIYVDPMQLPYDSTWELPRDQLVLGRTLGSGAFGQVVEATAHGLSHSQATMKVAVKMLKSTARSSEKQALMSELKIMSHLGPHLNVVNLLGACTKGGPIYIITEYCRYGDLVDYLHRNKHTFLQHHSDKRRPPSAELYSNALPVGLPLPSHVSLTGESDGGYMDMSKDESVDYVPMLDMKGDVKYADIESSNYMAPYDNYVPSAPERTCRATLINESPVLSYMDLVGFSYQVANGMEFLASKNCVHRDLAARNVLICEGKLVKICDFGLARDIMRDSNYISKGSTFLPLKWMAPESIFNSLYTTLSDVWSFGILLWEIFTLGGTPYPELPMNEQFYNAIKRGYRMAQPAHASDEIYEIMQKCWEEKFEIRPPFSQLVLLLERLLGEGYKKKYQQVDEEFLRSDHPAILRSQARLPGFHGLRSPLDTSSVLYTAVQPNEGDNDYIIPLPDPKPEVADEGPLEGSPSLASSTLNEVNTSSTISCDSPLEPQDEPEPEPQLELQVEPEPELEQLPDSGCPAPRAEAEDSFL

A word on the IC50: it is the concentration at which inhibition is half-maximal. With `C[C@H](Nc1cnc2cn(CC3CCC3)nc2n1)c1cc(NC(=O)c2cnc(C(F)(F)F)s2)ccc1F` [Compound 390, (S)-N-(3-(1-((2-(cyclobutylmethyl)-2H-pyrazolo[3,4-b]pyrazin-6-yl)amino)ethyl)-4-fluorophenyl)-2-(trifluoromethyl)thiazole-5-carboxamide], the IC50 in test [1] and in test [2] was < 300 nM throughout.
Turning to `CCn1cc2ncc(N[C@@H](C)c3cc(NC(=O)Cc4cncc(C)c4)ccc3C)nc2n1` [Compound 666, (S)-N-(3-(1-((2-ethyl-2H-pyrazolo[3,4-b]pyrazin-6-yl)amino)ethyl)-4-methylphenyl)-2-(5-methylpyridin-3-yl) acetamide], the IC50 in test [1] and in test [2] was < 300 nM throughout.
Turning to `CCn1cc2ncc(N[C@@H](C)c3cccc(NC(=O)c4cnc(CN5CC6(COC6)C5)c(F)c4)c3)nc2n1` [Compound 500, (S)-6-((2-oxa-6-azaspiro[3.3]heptan-6-yl)methyl)-N-(3-(1-((2-ethyl-2H-pyrazolo[3,4-b]pyrazin-6-yl)amino)ethyl)phenyl)-5-fluoronicotinamide], the IC50 in test [1] and in test [2] was ≥ 1000 nM each time.
`CCn1cc2ncc(N[C@@H](C)c3cc(NC(=O)Cc4cc(C)c(F)cn4)ccc3C)nc2n1` [Compound 687, (S)-N-(3-(1-((2-ethyl-2H-pyrazolo[3,4-b]pyrazin-6-yl)amino)ethyl)-4-methylphenyl)-2-(5-fluoro-4-methylpyridin-2-yl)acetamide]: the IC50 in test [1] and in test [2] was < 300 nM throughout.
For the molecule `CCn1cc2ncc(N[C@@H](C)c3cccc(NC(=O)Nc4cnn(CC5CC5)c4)c3)nc2n1` [Compound 741, (S)-1-(1-(cyclopropylmethyl)-1H-pyrazol-4-yl)-3-(3-(1-((2-ethyl-2H-pyrazolo[3,4-b]pyrazin-6-yl)amino)ethyl)phenyl)urea], the concentration for half-maximal inhibition (IC50) in test [1] was ≥ 1000 nM; in test [2] it was < 300 nM.
In the case of `CCn1cc2ncc(N[C@@H](C)c3cccc(NC(=O)c4ccc(NC(C)C)c(C)c4)c3)nc2n1` [Compound 405, (S)-N-(3-(1-((2-ethyl-2H-pyrazolo[3,4-b]pyrazin-6-yl)amino)ethyl)phenyl)-4-(isopropylamino)-3-methylbenzamide], the IC50 in test [1] and in test [2] was < 300 nM in each case.
For `CCn1cc2ncc(N[C@@H](C)c3cc(NC(=O)c4cnc(C5CC5)s4)ccc3F)nc2n1` [Compound 309, (S)-2-cyclopropyl-N-(3-(1-((2-ethyl-2H-pyrazolo[3,4-b]pyrazin-6-yl)amino)ethyl)-4-fluorophenyl)thiazole-5-carboxamide], the IC50 in test [1] and in test [2] was < 300 nM in each case.
For `CC(C)n1cc(C(=O)Nc2cccc([C@H](C)Nc3cnc4[nH]cc(-c5cnn(C)c5)c4n3)c2)cn1` [Compound 588, (S)-1-isopropyl-N-(3-(1-((7-(1-methyl-1H-pyrazol-4-yl)-5H-pyrrolo[2,3-b]pyrazin-2-yl)amino)ethyl)phenyl)-1H-pyrazole-4-carboxamide], the IC50 in test [1] and in test [2] was < 300 nM throughout.
As to `CCn1cc2ncc(N[C@@H](C)c3cc(NC(=O)Cc4ccc(C(C)C)cn4)ccc3C)nc2n1` [Compound 710, (S)-N-(3-(1-((2-ethyl-2H-pyrazolo[3,4-b]pyrazin-6-yl)amino)ethyl)-4-methylphenyl)-2-(5-isopropylpyridin-2-yl) acetamide], the IC50 in test [1] is ≥ 1000 nM; in test [2], < 300 nM.
`CCn1cc2ncc(N[C@@H](C)c3cc(NC(=O)c4ccc(Cl)c(C)c4)ccc3C)nc2n1` [Compound 508, (S)-4-chloro-N-(3-(1-((2-ethyl-2H-pyrazolo[3,4-b]pyrazin-6-yl)amino)ethyl)-4-methylphenyl)-3-methylbenzamide]: the IC50 in test [1] and in test [2] was < 300 nM each time.
For `Cc1cncc(C(=O)Nc2cccc([C@H](C)Nc3cnc4cc(F)ccc4n3)c2)c1` [Compound 40, (S)-N-(3-(1-((6-fluoroquinoxalin-2-yl)amino)ethyl)phenyl)-5-methylnicotinamide], the IC50 in test [1] and in test [2] was < 300 nM in each case.
As for `CCn1cc2ncc(N[C@@H](C)c3cccc(NC(=O)c4ccc(CN5CC6(COC6)C5)c(F)c4)c3)nc2n1` [Compound 468, (S)-4-((2-oxa-6-azaspiro[3.3]heptan-6-yl)methyl)-N-(3-(1-((2-ethyl-2H-pyrazolo[3,4-b]pyrazin-6-yl)amino)ethyl)phenyl)-3-fluorobenzamide], the IC50 in test [1] is ≥ 1000 nM; in test [2] it was 300 to 1000 nM.
In the same order, the values of `C[C@H](Nc1cnc2cnn(C)c2n1)c1cccc(NC(=O)c2cnn(C3CC3)c2)c1` [Compound 150, (S)-1-cyclopropyl-N-(3-(1-((1-methyl-1H-pyrazolo[3,4-b]pyrazin-6-yl)amino)ethyl)phenyl)-1H-pyrazole-4-carboxamide] are < 300 nM and < 300 nM.
Regarding `CC(=O)Oc1cccc(C(=O)Nc2cccc([C@H](C)Nc3cnc4cnn(C)c4n3)c2)c1` [Compound 215, (S)-3-((3-(1-((1-methyl-1H-pyrazolo[3,4-b]pyrazin-6-yl)amino)ethyl)phenyl)carbamoyl) phenyl acetate], the IC50 in test [1] and in test [2] was < 300 nM throughout.
Take `CCn1cc2ncc(N[C@@H](C)c3cccc(NC(=O)c4ccc(OC(F)(F)F)c(Cl)c4)c3)nc2n1` [Compound 437, (S)-3-chloro-N-(3-(1-((2-ethyl-2H-pyrazolo[3,4-b]pyrazin-6-yl)amino)ethyl)phenyl)-4-(trifluoromethoxy)benzamide]: the half-maximal inhibitory concentration (IC50) in test [1] and in test [2] was < 300 nM throughout.
As to `CCn1cc2ncc(N[C@@H](C)c3cccc(NC(=O)c4cnc(OC(C)C)c(Cl)c4)c3)nc2n1` [Compound 354, (S)-5-chloro-N-(3-(1-((2-ethyl-2H-pyrazolo[3,4-b]pyrazin-6-yl)amino)ethyl)phenyl)-6-isopropoxynicotinamide], the IC50 in test [1] and in test [2] was < 300 nM throughout.
With `CCn1cc2ncc(N[C@@H](C)c3cc(NC(=O)c4cnc(C#N)c(C)c4)ccc3F)nc2n1` [Compound 306, (S)-6-cyano-N-(3-(1-((2-ethyl-2H-pyrazolo[3,4-b]pyrazin-6-yl)amino)ethyl)-4-fluorophenyl)-5-methylnicotinamide], the half-maximal inhibitory concentration (IC50) in test [1] and in test [2] was < 300 nM in each case.
With `CCn1cc2ncc(N[C@@H](C)c3cccc(NC(=O)c4ccc(C(F)(F)F)c(OC)c4)c3)nc2n1` [Compound 440, (S)-N-(3-(1-((2-ethyl-2H-pyrazolo[3,4-b]pyrazin-6-yl)amino)ethyl)phenyl)-3-methoxy-4-(trifluoromethyl) benzamide], the IC50 in test [1] and in test [2] was < 300 nM each time.
As for `Cc1cc(C(=O)Nc2cccc([C@H](C)Nc3cnc4cnn(C)c4n3)c2)cnc1CN1CCN(C)CC1` [Compound 243, (S)-5-methyl-N-(3-(1-((1-methyl-1H-pyrazolo[3,4-b]pyrazin-6-yl)amino)ethyl)phenyl)-6-((4-methylpiperazin-1-yl)methyl)nicotinamide], the IC50 in test [1] and in test [2] was < 300 nM each time.
With `Cc1cncc(C(=O)Nc2cccc([C@H](C)Nc3cncc4[nH]ncc34)c2)c1` [Compound 749, (S)-N-(3-(1-((1H-pyrazolo[3,4-c]pyridin-4-yl)amino)ethyl)phenyl)-5-methylnicotinamide], the IC50 in test [1] and in test [2] was ≥ 1000 nM throughout.
As to `Cc1n[nH]c2ncc(N[C@@H](C)c3cccc(NC(=O)c4ccc(C5CC5)nc4)c3)nc12` [Compound 535, (S)-6-cyclopropyl-N-(3-(1-((3-methyl-1H-pyrazolo[3,4-b]pyrazin-5-yl)amino)ethyl)phenyl)nicotinamide], the IC50 in test [1] and in test [2] was < 300 nM each time.
`CSc1cc(C(=O)Nc2cccc([C@H](C)Nc3cnc4cnn(C)c4n3)c2)ccc1CN1CCN(C)CC1` [Compound 238, (S)-N-(3-(1-((1-methyl-1H-pyrazolo[3,4-b]pyrazin-6-yl)amino)ethyl)phenyl)-4-((4-methylpiperazin-1-yl)methyl)-3-(methylthio)benzamide]: the IC50 in test [1] and in test [2] was < 300 nM throughout.
Take `CCn1cc2ncc(N[C@@H](C)c3cccc(NC(=O)c4ccc(Cn5ccnc5)c(C)c4)c3)nc2n1` [Compound 435, (S)-4-((1H-imidazol-1-yl)methyl)-N-(3-(1-((2-ethyl-2H-pyrazolo[3,4-b]pyrazin-6-yl)amino)ethyl)phenyl)-3-methylbenzamide]: the half-maximal inhibitory concentration (IC50) in test [1] and in test [2] was < 300 nM each time.
